Laboratory results as given in ChEMBL document CHEMBL1130696, “Conformationally constrained analogues of diacylglycerol (DAG). 15. The indispensable role of the sn-1 and sn-2 carbonyls in the binding of DAG-lactones to protein kinase C (PK-C)” (Bioorg Med Chem Lett, 1998).

Target: Protein kinase C alpha type (Homo sapiens, UniProt P17252)
Assay: Displacement of [20-3H]-phorbol 12,13-dibutyrate (PDBU) from PKCalpha (C1b domain)

Row | Ki | Structure (SMILES)
1 | 7.58 µM | CCCCCCCCCCCCC/C=C1/COC(CO)(COC(C)=O)C1 (stereo not drawn)
2 | 4.98 µM | CCCCCCCCCCCCC/C=C1\CC(CO)(COCC)OC1=O (stereo not drawn)
3 | 7.46 µM | CCCCCCCCCCCCC/C=C1/CC(CO)(COCC)OC1=O (stereo not drawn)
